What all share (test): DTP human tumour cell line panel, 48 h
Test [1] relates to SF-295 CNS.
Test [2] has as its system UACC-257 melanoma.
In test [3] the test system is MCF7 breast.
Test [4] concerns HOP-92 NSCLC.
The test system of test [5] is SK-OV-3 ovarian.
Test [6] deals with PC-3 prostate.
Test [7] deals with U251 CNS.
Test [8] relates to KM12 colon.
In test [9] the test system is SK-MEL-5 melanoma.
The subject of test [10] is HCT-15 colon.

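Cultured in 96-well plates, cells were exposed to test compound for 48 hours across five concentrations. Here, GI50 denotes the concentration required for 50% inhibition of growth. At the TGI there is no net growth.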

In the case of `O=C(CCCSc1nc(-c2ccccc2)cc(-c2ccccc2)n1)NO`, the GI50 (usually the concentration giving 50% growth inhibition) is 2.17 µM in test [1]; 1.77 µM in test [2]; 2.1 µM in test [3]; 1.58 µM in [4]; 1.94 µM in test [5]; 1.72 µM in test [6]. Further, the GI50 was 1.24 µM in test [7], 2.64 µM in test [8], 1.41 µM in [9] and 0.408 µM in test [10]. Besides, the TGI (commonly the concentration at which net growth stops) in test [1] amounted to 6.98 µM; in test [2] it was 6.71 µM; in test [3], 14.3 µM; in test [4] it was 6.13 µM; in test [5] it was 5.57 µM; in [6] it was 13.6 µM. Moreover, the TGI in test [7] amounted to 3.2 µM; in test [8], 12.9 µM; in test [9] it was 3.17 µM; in test [10], 11.8 µM.

As to `COC[C@H]1Cn2cc(-c3nc(Nc4ccnn4C)ncc3C)nc2C(=O)N1Cc1ccc(F)c(F)c1`, the GI50 in [1] was more than 100 µM; in [2], 0.0352 µM; in test [3], 9.79 µM; in [4], 0.21 µM; in test [5], 35.9 µM; in test [6], more than 100 µM. Moreover, the GI50 was 0.586 µM in test [8], 9.51 µM in test [9] and 28.3 µM in test [10]. Further, the TGI in test [1] was more than 100 µM; in test [2] it was more than 100 µM; in test [3], more than 100 µM; in test [4], more than 26.4 µM; in test [5], more than 100 µM; in test [6] it was more than 100 µM. Besides, the TGI is more than 100 µM in [7], more than 100 µM in test [8], more than 83.3 µM in test [9] and more than 100 µM in test [10].

For `N#CC(C#N)=C/C=C(\Sc1nc2ccccc2s1)c1ccc(Cl)cc1`, the GI50 in test [1] was 8.9 µM; in [2], 12.1 µM; in test [3], 7.65 µM; in [4], 13.8 µM; in [5] it was 11.9 µM; in [6] it was 6.67 µM. Further, the GI50 in test [7] is 6.82 µM; in test [8] it was 8.9 µM; in test [9], 10.4 µM; in [10], 6.72 µM. The TGI in test [1] was 27.7 µM; in test [2] it was 25.4 µM; in test [3], more than 100 µM; in test [4], 29.3 µM; in test [5], more than 42.2 µM; in test [6], 27.7 µM. The TGI in test [7] is 36.4 µM; in test [8], 33.6 µM; in test [9], 24.6 µM; in [10], more than 44.2 µM.

`Oc1[nH]c2ccccc2c1N=Nc1nc(-c2ccc(Br)cc2)cs1`: the TGI is 67.7 µM in [1]; 66.1 µM in [2]; more than 100 µM in test [3]; 31.7 µM in test [4]; 66.3 µM in test [5]; more than 100 µM in test [6]. Besides, the TGI in [7] was 28.1 µM; in [8] it was more than 100 µM; in test [9], 33.4 µM; in [10], 68.3 µM.

Consider `CCOC(=S)SCC(=O)O`, for which the TGI in [1], in test [2], in test [3], in [4], in test [5] and in test [6] was more than 100 µM each time. For the same compound, the TGI in test [7], in test [8], in [9] and in test [10] was more than 100 µM throughout.

Take `Nc1n[nH]c2cccc(C#Cc3cccc(C(=O)Nc4ccc(CN5CCOCC5)c(C(F)(F)F)c4)c3)c12`: the GI50 in test [1] was 2.03 µM; in test [2], 2.41 µM; in test [3], 2.41 µM; in test [4], 1.12 µM; in [5], 4 µM; in test [6], 2.16 µM. In addition, the GI50 in test [7] is 2.75 µM; in test [8], 2.81 µM; in [9], 1.4 µM; in test [10] it was 2.56 µM. Besides, the TGI in test [1] was 6.1 µM; in test [2], 10.6 µM; in test [3], 10.3 µM; in test [4], 4.29 µM; in test [5] it was 17.5 µM; in test [6] it was 7.79 µM. Further, the TGI in test [7] was 15.2 µM; in [8], 9.65 µM; in test [9], 3.26 µM; in test [10], 9.32 µM.

As for `COc1ccc(-c2cn[nH]c2-c2cc(OC)c(OC)c(OC)c2)cc1`, the TGI in test [1] is 0.0379 µM; in [2], more than 49.6 µM; in test [3], 16.8 µM; in [4], 9.79 µM; in [5], 9.12 µM; in [6] it was 59.8 µM. Moreover, the TGI in test [7] stood at 1.7 µM; in test [8] it was 12 µM; in [9], 0.226 µM; in [10], 21.8 µM. The GI50 in test [2] is 0.558 µM; in [3], 0.0284 µM; in [4], 0.0407 µM; in test [5], 0.0293 µM; in [6], 0.0309 µM; in test [7], 0.0358 µM. In addition, the GI50 in test [8] is 0.0252 µM; in [9], 0.0243 µM; in test [10], 0.0217 µM.

For the compound `C[C@]12CCC3c4ccc(O)cc4CCC3C1CC[C@@]2(O)CNC(=O)/C=C/c1ccc(O)c(O)c1` (stereo partly drawn), the GI50 is 4.07 µM in test [1]; 0.0562 µM in [2]; 12.4 µM in test [3]; 12.1 µM in test [4]; 16.7 µM in test [5]; 5.65 µM in test [6]. Further, the GI50 is 3.02 µM in test [7], 2.89 µM in test [8], 3.23 µM in test [9] and 4.33 µM in test [10]. Further, the TGI was determined as 22.1 µM in test [1]; 6.54 µM in test [2]; 45.4 µM in test [3]; 33.6 µM in test [4]; 34.5 µM in test [5]; 22.8 µM in [6]. Besides, the TGI in test [7] turned out to be 10.6 µM; in test [8] it was 11.1 µM; in test [9], 12 µM; in test [10], 16.8 µM.

`CCCOc1cc2ccccc2cc1C(=O)Nc1nc(N)c2c(ccc3nccc32)[nH]1`: the GI50 was 0.0307 µM in [1]; 1.21 µM in test [2]; 0.0459 µM in test [3]; 0.0279 µM in test [4]; 0.0591 µM in [5]; 0.0492 µM in test [6]. For the same compound, the GI50 in test [7] is 0.0527 µM; in [8] it was 0.0448 µM; in test [9], 0.0413 µM; in test [10], 0.0444 µM. Besides, the TGI was found to be 1.26 µM in test [1]; 2.62 µM in test [2]; 1.5 µM in test [3]; 1.98 µM in test [4]; 2.36 µM in test [5]; 2.22 µM in [6]. Besides, the TGI turned out to be 1.4 µM in test [7], 1.53 µM in test [8], 1.04 µM in test [9] and 1.31 µM in test [10].

`COCCOc1ccc(-c2nc3ccc(-c4nc5ccc(N6CCN(C)CC6)cc5[nH]4)cc3[nH]2)cc1`: the GI50 in test [1] is 1.38 µM; in [2], 1.71 µM; in test [3] it was 0.316 µM; in test [4], 2.16 µM; in test [5], 2.7 µM; in test [6] it was 2.19 µM. For the same compound, the GI50 in test [7] is 0.659 µM; in test [8], 2.58 µM; in test [9] it was 0.351 µM; in test [10], 38.7 µM. Further, the TGI amounted to 15.7 µM in [1]; 5.92 µM in [2]; 11.8 µM in test [3]; 9.71 µM in [4]; 15.6 µM in test [5]; 24.5 µM in [6]. The TGI in test [7] was 10.2 µM; in [8], 14.3 µM; in [9], 1.88 µM; in [10], more than 100 µM.

Turning to `COc1cccc(C2SC(N)=Nc3c2c(C)nn3C(=O)c2ccccc2O)c1` (stereo not drawn), the TGI in [1], in test [2], in [3], in [4], in [5] and in [6] was more than 10 µM throughout. Moreover, the TGI in test [7], in test [8], in test [9] and in test [10] was more than 10 µM throughout.

On to `CN1CC[C@@H](NC(=O)Nc2ccc(C#N)cc2)C[C@@H]1c1nc2ccccc2[nH]1`, for which the GI50 in test [1] is more than 100 µM; in [2] it was more than 100 µM; in test [3], 98.8 µM; in test [4], 35.9 µM; in [5] it was more than 100 µM; in test [6], more than 100 µM. For the same compound, the GI50 is more than 100 µM in [7], more than 100 µM in test [8], more than 57.7 µM in [9] and more than 100 µM in test [10]. The concentration for total growth inhibition (TGI) in test [1], in [2], in [3], in test [4], in test [5] and in test [6] was more than 100 µM in each case. The TGI in [7], in [8], in test [9] and in test [10] was more than 100 µM in each case.

`CN(C)CC1CC/C(=C\c2ccc(O)cc2)C1=O` (stereo not drawn): the TGI in [1] was 34.5 µM; in test [2] it was 11.3 µM; in test [3], 4.56 µM; in test [4], 5.82 µM; in test [5], 32.3 µM; in [6], 20.2 µM. The TGI in [7] was found to be 12.5 µM; in test [8] it was 16.6 µM; in test [9], 20.4 µM; in [10], 5.48 µM.

On to `Nc1c(C(=O)Nc2cccc(C(F)(F)F)c2)sc2nc3c(cc12)CCCCC3`, for which the GI50 in test [1] is 2.2 µM; in test [2], 3.64 µM; in [3], 2.35 µM; in test [4], 1.82 µM; in test [5] it was 1.85 µM; in test [6] it was 3.21 µM. Besides, the GI50 in [7] is 2.2 µM; in [8], 5.33 µM; in test [9] it was 1.18 µM; in test [10], 10.7 µM. In addition, the TGI in test [1] was determined as 12.2 µM; in [2], 37.4 µM; in test [3], 13.6 µM; in [4], 6.23 µM; in test [5], 4.36 µM; in [6], 34.2 µM. In addition, the TGI in test [7] is 7.98 µM; in test [8], more than 100 µM; in [9], 12 µM; in test [10], more than 100 µM.

Turning to `O=C(/C=C/c1ccc(O)cc1)c1ccc(O)cc1`, the TGI in test [1] is more than 96.7 µM; in [2] it was 74.7 µM; in test [3], more than 100 µM; in [4], 76 µM; in test [5] it was more than 100 µM; in test [6] it was more than 100 µM. Further, the TGI in [7] was 46.6 µM; in test [8] it was 19.8 µM; in [9] it was 44.2 µM; in [10] it was 57.5 µM.

With `COc1ccc2nc3cc(Cl)ccc3c(NCCNCC(C)O)c2c1` (stereo not drawn), the GI50 in test [1] was 1.68 µM; in test [2], 2.14 µM; in test [3] it was 1.28 µM; in [4], 2.6 µM; in test [5] it was 2.58 µM; in test [6], 2.33 µM. The GI50 in test [7] is 1.99 µM; in test [8], 2.02 µM; in [9], 1.68 µM; in [10], 1.21 µM. The TGI in [1] was determined as 6.71 µM; in [2], 3.73 µM; in test [3] it was 5.51 µM; in [4], 6.68 µM; in test [5] it was 9.75 µM; in test [6] it was 5.86 µM. In addition, the TGI in test [7] worked out at 4.62 µM; in [8] it was 8.74 µM; in [9] it was 3.06 µM; in test [10], 4.36 µM.

For the compound `COc1ccc2nc(NC(=O)CSc3nnc4n3S(=O)(=O)c3ccccc3N4c3ccccc3)sc2c1`, the GI50 in test [1] was more than 100 µM; in test [2] it was more than 100 µM; in test [3], more than 100 µM; in test [4] it was 42.7 µM; in test [5], more than 100 µM; in test [6], more than 100 µM. In addition, the GI50 in test [7] is 52.4 µM; in test [8], more than 100 µM; in test [9] it was more than 100 µM; in test [10], more than 100 µM. The TGI in [1], in test [2], in [3], in [4], in test [5] and in test [6] was more than 100 µM each time. Also, the TGI in [7], in [8], in [9] and in test [10] was more than 100 µM throughout.

These data come from PubChem BioAssay (NCI).
